Consider 39 compounds from patent US7736537B1, “Replacement solvents having improved properties for refrigeration flushes” (Mainstream Engineering Corp., priority 2008, dated 2010).

The conditions of series [1]: pure solvent; cited from earlier work.
On series [2], the source says: Parameters such as the lethal dose 50 (LD50), lethal concentration 50 (LC50), cardiac sensitization, skin irritation, and mutagenicity (e.g., via the Ames test) can be used as toxicity metrics. The LDn or LCn abbreviations, where n is the percent lethality, are used for the dose of a toxicant lethal to n % of a test population. […] Cardiac sensitization is a measure of the ability of a compound to cause cardiac arrhythmia under stress.
The property modification components are chosen from a list of potential replacement solvents. These compounds included halogenated compounds such as halogenated acetates, alcohols, alkanes, cycloalkanes, alkenes, cycloalkenes, amines, anhydrides, aromatics, carbonyls, diones, esters, ethers, heterocyclics and ketones.

For series [3] the following is noted: solubility parameter, Table 1; cited from earlier work.
The conditions of series [4]: Table 1; cited from earlier work.
Where [5] appears, read: cardiac sensitization relative to CFC-113.

Read-outs that look alike come from different tables or passages of the source.

Turning to `CC(C)O` [isopropyl alcohol], the flash point in series [1] is reported as 54 ° F.
With `C=C(C)[C@H]1CC=C(C)CC1` [d-limonene], the flash point entry in series [1] is reported as “around 120 ° F”.
On to `FC(OC(F)(F)Br)=C(C(F)(F)F)C(F)(F)F` [1-(bromodifluoromethoxy)-2-(trifluoromethyl)-1,3,3,3-tetrafluoro-1-propene], for which the CS/CS113 in series [2] (setting [5]) was 187.0. In series [3], the SP is 7.06 (cal/cm^3)^1/2. Also, the BP in series [4] is on record as 78.6 C.
On to `FC(F)=C(F)C(F)(F)C(F)(F)Br` [4-bromo-1,1,2,3,3,4,4-heptafluorobutene], for which the CS/CS113 in series [2] (setting [5]) turned out to be 23.4. The SP in series [3] is given as 6.78 (cal/cm^3)^1/2. For the same compound, the BP in series [4] is reported as 51.5 C.
On to `FC(F)(Br)OC=C(C(F)(F)F)C(F)(F)F` [1-(bromodifluoromethoxy)-2-(trifluoromethyl)-3,3,3-trifluoro-1-propene], for which the CS/CS113 in series [2] (setting [5]) was found to be 151.6. In addition, the SP in series [3] is given as 7.26 (cal/cm^3)^1/2. Besides, the BP in series [4] was 78.3 C.
In the case of `FC(F)(F)O/C=C\OC(F)(F)Br` [(Z)-1-(bromodifluoromethoxy)-2-(trifluoromethoxy)ethene], the CS/CS113 in series [2] (setting [5]) was determined as 144.9. The SP in series [3] is recorded as 7.79 (cal/cm^3)^1/2. Besides, the BP in series [4] is 76.5 C.
`CC(C)CBr` [1-bromo-2-methylpropane]: in series [1], the flash point is 11 °C.
For the compound `FC1=C(OCC(F)(F)F)C(F)(F)C(F)(F)C(F)(F)C1(F)F` [1-(2,2,2-trifluoroethoxy)nonafluoro-cyclohexene], the CS/CS113 in series [2] (setting [5]) is 70.2. For the same compound, the SP in series [3] is given as 7.51 (cal/cm^3)^1/2. For the same compound, the BP in series [4] is reported as 113.7 C.
Take `Fc1c(F)c(F)c(C(F)(F)F)c(F)c1F` [perfluorotoluene]: the CS/CS113 in series [2] (setting [5]) is on record as 64.0. The SP in series [3] is given as 7.70 (cal/cm^3)^1/2. Further, in series [4], the BP is 104.0 C.
As to `CCO` [Ethanol, ethanol], in series [1], the flash point was 55 ° F.
As to `FC(Br)=C(C(F)(F)F)C(F)(F)F` [1-bromo-1,3,3,3-tetrafluoro-2-(trifluoromethyl)-1-propene], in series [2] (setting [5]), the CS/CS113 is listed as 71.9. Moreover, the SP in series [3] was 6.78 (cal/cm^3)^1/2. For the same compound, the BP in series [4] was 51.9 C.
Turning to `F/C(Br)=C(/F)OCC(F)(F)F` [(Z)-1-bromo-1,2-difluoro-2-(2,2,2-trifluoroethoxy)-ethene], in series [2] (setting [5]), the CS/CS113 was 52.7. The SP in series [3] was 7.61 (cal/cm^3)^1/2. In addition, in series [4], the BP was 87.9 C.
`FC(Cl)C(F)(F)C(F)(F)Cl` (centres unmarked) [1,3-dichloro-1,1,2,2,3-pentafluoropropane]: the CS/CS113 in series [2] (setting [5]) stood at 9.2. The SP in series [3] is on record as 7.31 (cal/cm^3)^1/2. In series [4], the BP is reported as 52.7 C.
`C=C(F)C(F)(F)C(F)(F)Br` [4-bromo-2,3,3,4,4-pentafluorobutene]: the CS/CS113 in series [2] (setting [5]) was 6.0. Further, the SP in series [3] was 7.21 (cal/cm^3)^1/2. The BP in series [4] is 69.2 C.
For the compound `C=CC(F)(F)C(F)(F)Br` [4-bromo-3,3,4,4-tetrafluoro-1-butene], the CS/CS113 in series [2] (setting [5]) is 5.8. In addition, the SP in series [3] is listed as 7.44 (cal/cm^3)^1/2. Moreover, in series [4], the BP is given as 55.0 C.
In the case of `FC(F)(F)C(F)(F)C(F)(F)C(F)(F)C1(F)OC(F)(F)C(F)(F)C1(F)F` (centres unmarked) [perfluoro-2-butyltetrahydrofuran], in series [2] (setting [5]), the CS/CS113 stood at 65.4. Moreover, in series [3], the SP is on record as 6.94 (cal/cm^3)^1/2. Moreover, the BP in series [4] is 103.0 C.
Take `COC(F)(F)C(F)(F)C(F)(F)C(F)(F)F` [methyl perfluorobutyl ether]: the CS/CS113 in series [2] (setting [5]) was determined as 53.5. Besides, the SP in series [3] was 6.75 (cal/cm^3)^1/2. Also, the BP in series [4] was 51.0 C.
With `C=CC(F)(Cl)C(F)(F)Br` (centres unmarked) [4-bromo-3-chloro-3,4,4-trifluoro-1-butene], the CS/CS113 in series [2] (setting [5]) is recorded as 0.8. In series [3], the SP is recorded as 7.76 (cal/cm^3)^1/2. In series [4], the BP is 99.7 C.
Consider `FC(F)(F)C(F)(F)C(F)(F)C(F)(F)/C=C\C(F)(F)C(F)(F)C(F)(F)C(F)(F)F` [1,2-(Z)-bis(perfluoro-n-butyl)ethylene], for which, in series [2] (setting [5]), the CS/CS113 was 1188.5. Moreover, in series [3], the SP is given as 6.81 (cal/cm^3)^1/2. Moreover, the BP in series [4] is 132.0 C.
`F/C(=C(\Br)C(F)(F)F)C(F)(F)F` [(Z)-2-bromo-1,1,1,3,4,4,4-heptafluoro-2-butene]: the CS/CS113 in series [2] (setting [5]) worked out at 48.6. The SP in series [3] was 6.79 (cal/cm^3)^1/2. In addition, the BP in series [4] is listed as 49.0 C.
As to `FC(F)OC(F)(F)C(F)(F)OC(F)F` [bis(difluoromethoxy)-tetrafluoroethane], the CS/CS113 in series [2] (setting [5]) was 362.3. Further, the SP in series [3] is recorded as 7.50 (cal/cm^3)^1/2. In addition, the BP in series [4] was 58.0 C.
For the compound `C=C(C(F)(F)F)C(F)(F)Br` [3-bromo-3,3-difluoro-2-(trifluoromethyl)-propene], the CS/CS113 in series [2] (setting [5]) came out at 15.0. Also, the SP in series [3] is reported as 7.24 (cal/cm^3)^1/2. Moreover, the BP in series [4] was 49.7 C.
Turning to `FC(F)=C(F)C(F)(F)CBr` [4-bromo-1,1,2,3,3-pentafluorobutene], the CS/CS113 in series [2] (setting [5]) came to 25.3. Further, the SP in series [3] is given as 7.79 (cal/cm^3)^1/2. In addition, the BP in series [4] is recorded as 80.4 C.
On to `OCC(C(F)(F)F)(C(F)(F)F)C(F)(F)F` [3,3,3-trifluoro-bis-2,2-(trifluoromethyl)-1-propanol], for which the CS/CS113 in series [2] (setting [5]) was 40.7. The SP in series [3] is 6.81 (cal/cm^3)^1/2. Besides, the BP in series [4] is listed as 86.1 C.
Regarding `FC(=C(C(F)(F)F)C(F)(F)F)C(F)(F)Br` [4-bromo-1,1,1,3,4,4-hexafluoro-2-(trifluoromethyl)-2-butene], the CS/CS113 in series [2] (setting [5]) is on record as 103.2. Besides, the SP in series [3] is given as 6.51 (cal/cm^3)^1/2. The BP in series [4] is recorded as 68.1 C.
`FC(F)=C(F)C(F)(Br)C(F)(F)F` (centres unmarked) [3-bromo-1,1,2,3,4,4,4-heptafluorobutene]: in series [2] (setting [5]), the CS/CS113 was 21.9. Also, the SP in series [3] is 6.75 (cal/cm^3)^1/2. In addition, the BP in series [4] is listed as 47.5 C.
For `Fc1c(F)c(F)c(C(F)(F)F)c(Br)c1F` [2-bromoheptafluorotoluene], the CS/CS113 in series [2] (setting [5]) came to 21.5. Besides, the SP in series [3] is 7.64 (cal/cm^3)^1/2. Also, the BP in series [4] was 151.3 C.
Regarding `FC(F)(F)c1cc(C(F)(F)F)c(Br)c(C(F)(F)F)c1` [1-bromo-2,4,6-tris(trifluoromethyl)benzene], the CS/CS113 in series [2] (setting [5]) was found to be 113.0. In addition, the SP in series [3] is recorded as 7.76 (cal/cm^3)^1/2. Also, the BP in series [4] is 173.4 C.
With `FC(F)(Br)C=C(C(F)(F)F)C(F)(F)F` [4-bromo-1,1,1,4,4-pentafluoro-2-(trifluoromethyl)-2-butene], the CS/CS113 in series [2] (setting [5]) is 105.5. The SP in series [3] was 6.74 (cal/cm^3)^1/2. Besides, the BP in series [4] is reported as 61.0 C.
Regarding `FCOC(C(F)(F)F)C(F)(F)F` [fluoromethyl 2,2,2-trifluoro-1-(trifluoromethyl)ethyl ether, reference compound], the CS/CS113 in series [2] (setting [5]) was found to be 103.0. The SP in series [3] was 7.10 (cal/cm^3)^1/2. In series [4], the BP is recorded as 59.0 C.
Turning to `O=C(CC(=O)C(F)(F)F)C(F)(F)F` [1,1,1,5,5,5-hexafluoro-2,4-pentanedione], the CS/CS113 in series [2] is 140.5. Besides, in series [3], the SP is 6.90 (cal/cm^3)^1/2. Besides, in series [4], the BP is 69.9 C.
As for `COC(C(F)(F)F)C(F)(F)F` [methyl 2,2,2-trifluroethyl-1-(trifluoromethyl)ether], in series [2] (setting [5]), the CS/CS113 amounted to 107.3. Moreover, the SP in series [3] was 7.26 (cal/cm^3)^1/2. In addition, the BP in series [4] is 50.8 C.
Consider `COCC(C)OCC(C)OC` (centres unmarked) [dipropyleneglycol dimethylether], for which, in series [1], the flash point is 149 ° F.
Consider `FC(F)(F)COCC(F)(F)F` [bis(2,2,2-trifluoroethyl)ether], for which, in series [2] (setting [5]), the CS/CS113 was determined as 109.2. Also, in series [3], the SP is recorded as 7.32 (cal/cm^3)^1/2. The BP in series [4] is listed as 62.5 C.
`C=C(F)C(F)(Br)C(F)(F)F` (centres unmarked) [3-bromo-2,3,4,4,4-pentafluorobutene]: the CS/CS113 in series [2] (setting [5]) turned out to be 4.9. In addition, in series [3], the SP is given as 7.20 (cal/cm^3)^1/2. The BP in series [4] is on record as 69.7 C.
On to `CC(=O)C(F)(F)C(F)(F)C(F)(F)F` [methyl heptafluoropropyl ketone], for which the CS/CS113 in series [2] (setting [5]) amounted to 25.4. Moreover, the SP in series [3] was 7.32 (cal/cm^3)^1/2. In series [4], the BP is on record as 63.5 C.
`FC(F)(F)C(F)(F)C(F)(F)C(F)(F)OC(F)(F)C(F)(F)C(F)(F)C(F)(F)F` [perfluorodibutyl ether]: in series [2] (setting [5]), the CS/CS113 was 896.2. Further, in series [3], the SP is recorded as 6.65 (cal/cm^3)^1/2. In addition, in series [4], the BP is 110.1 C.
Take `CCOC(F)(F)C(F)Cl` (centres unmarked) [2-chloro-1,1,2-trifluoroethyl ethyl ether]: the CS/CS113 in series [2] (setting [5]) was 15.0. Further, in series [3], the SP is on record as 7.50 (cal/cm^3)^1/2. The BP in series [4] is on record as 88.9 C.
`FC(F)(F)C(F)(F)C(Cl)Cl` [3,3-dichloro-1,1,1,2,2-pentafluoropropane]: the CS/CS113 in series [2] (setting [5]) is 16.7. Moreover, the SP in series [3] is given as 7.26 (cal/cm^3)^1/2. Also, the BP in series [4] was 48.5 C.
